# Reference: US20230128357A1, “Compound Combination with Superior Herbicidal Activity” (priority 2020, published 2023)
# How the values were obtained:
# Assay in all cases: Herbicidal action, field trial, post-emergence
# Assay type in all cases: in vivo
# Polygonum convolvulus = tested on: Polygonum convolvulus
# Source text: (§1) The growth stages of the different weed or crop plant species are indicated according to the BBCH monograph “Growth stages of mono- and dicotyledonous plants”, 2nd edition, 2001, ed. Uwe Meier, Federal Biological Research Centre for Agriculture and Forestry (Biologische Bundesanstalt für Land und Forstwirtschaft). The respective BBCH stages are mentioned in brackets for the different weed or crop plant species and indicate the BBCH stage for the majority of the respective weed or crop plant species.
# (§2) The dose rates of herbicidal ingredients used in each case are indicated for the respective active ingredient in brackets and refer to the amount of active ingredient per hectare (g a.i./ha).
# (§3) EC=A+B+C−[((A·B)+(A·C)+(B·C)]100)+(A·B·C/10000)
# Echinocloa crus-galli = tested on: Echinocloa crus-galli
# Source text: as §1, §2, §3
# Panicum maximum = tested on: Panicum maximum
# Source text: as §1, §2, §3
# Zea mays = tested on: Zea mays
# Source text: as §1, §2, §3
# Setaria viridis = tested on: Setaria viridis
# Source text: as §1, §2, §3
# Chenopodium album = tested on: Chenopodium album
# Source text: as §1, §2, §3
# Abutilon theophrasti = settings: Table 2
# Source text: as §1, §2
compound,measurement,setting,value
"Cc1ccc2c(c1)[C@H](Nc1nc(N)nc([C@@H](C)F)n1)[C@@H](C)C2 (mixture of isomers) [Indaziflam, N2-[(1R,2S)-2,3-dihydro-2,6-dimethyl-1H-inden-1-yl]-6-[(1RS)-1-fluoroethyl]-1,3,5-triazine-2,4-diamine]",Herbicidal Activity 13 DAT (EA),"Polygonum convolvulus; 10 g a.i./ha, Table 8",20%
same,Herbicidal Activity 13 DAT (EA),"Polygonum convolvulus; 25 g a.i./ha, Table 8",20%
same,Herbicidal Activity 13 DAT (EA),"Echinocloa crus-galli; 10 g a.i./ha, Table 11",0%
same,Herbicidal Activity 13 DAT (EA),"Echinocloa crus-galli; 25 g a.i./ha, Table 11",0%
same,Herbicidal Activity 13 DAT (EA),"Panicum maximum; 10 g a.i./ha, Table 12",0%
same,Herbicidal Activity 13 DAT (EA),"Panicum maximum; 25 g a.i./ha, Table 12",0%
same,Herbicidal Activity 13 DAT (EA),"Zea mays; 10 g a.i./ha, Table 13",0%
same,Herbicidal Activity 13 DAT (EA),"Zea mays; 25 g a.i./ha, Table 13",0%
same,Herbicidal Activity 13 DAT (EA),"Setaria viridis; 10 g a.i./ha, Table 10",0%
same,Herbicidal Activity 13 DAT (EA),"Setaria viridis; 25 g a.i./ha, Table 10",0%
same,Herbicidal Activity 13 DAT (EA),"Chenopodium album; 10 g a.i./ha, Table 9",0%
same,Herbicidal Activity 13 DAT (EA),"Chenopodium album; 25 g a.i./ha, Table 9",10%
CCCCCCCCC(=O)O [Pelargonic acid],Herbicidal Activity 13 DAT (EA),Abutilon theophrasti; 6000 g a.i./ha,40%
same,Herbicidal Activity 13 DAT (EA),Abutilon theophrasti; 16000 g a.i./ha,80%
same,Herbicidal Activity 13 DAT (EA),"Polygonum convolvulus; 6000 g a.i./ha, Table 1",10%
same,Herbicidal Activity 13 DAT (EA),"Polygonum convolvulus; 6000 g a.i./ha, Table 8",25%
same,Herbicidal Activity 13 DAT (EA),"Polygonum convolvulus; 16000 g a.i./ha, Table 1",89%
same,Herbicidal Activity 13 DAT (EA),"Polygonum convolvulus; 16000 g a.i./ha, Table 8",90%
same,Herbicidal Activity 13 DAT (EA),"Echinocloa crus-galli; 6000 g a.i./ha, Table 5",25%
same,Herbicidal Activity 13 DAT (EA),"Echinocloa crus-galli; 6000 g a.i./ha, Table 11",13%
same,Herbicidal Activity 13 DAT (EA),"Echinocloa crus-galli; 16000 g a.i./ha, Table 5",35%
same,Herbicidal Activity 13 DAT (EA),"Echinocloa crus-galli; 16000 g a.i./ha, Table 11",30%
same,Herbicidal Activity 13 DAT (EA),"Panicum maximum; 6000 g a.i./ha, Table 6",10%
same,Herbicidal Activity 13 DAT (EA),"Panicum maximum; 6000 g a.i./ha, Table 12",15%
same,Herbicidal Activity 13 DAT (EA),"Panicum maximum; 16000 g a.i./ha, Table 6",65%
same,Herbicidal Activity 13 DAT (EA),"Panicum maximum; 16000 g a.i./ha, Table 12",58%
same,Herbicidal Activity 13 DAT (EA),"Zea mays; 6000 g a.i./ha, Table 7",40%
same,Herbicidal Activity 13 DAT (EA),"Zea mays; 6000 g a.i./ha, Table 13",39%
same,Herbicidal Activity 13 DAT (EA),"Zea mays; 16000 g a.i./ha, Table 7",60%
same,Herbicidal Activity 13 DAT (EA),"Zea mays; 16000 g a.i./ha, Table 13",63%
same,Herbicidal Activity 13 DAT (EA),"Setaria viridis; 6000 g a.i./ha, Table 4",40%
same,Herbicidal Activity 13 DAT (EA),"Setaria viridis; 6000 g a.i./ha, Table 10",25%
same,Herbicidal Activity 13 DAT (EA),"Setaria viridis; 16000 g a.i./ha, Table 4",55%
same,Herbicidal Activity 13 DAT (EA),"Setaria viridis; 16000 g a.i./ha, Table 10",50%
same,Herbicidal Activity 13 DAT (EA),"Chenopodium album; 6000 g a.i./ha, Table 3",45%
same,Herbicidal Activity 13 DAT (EA),"Chenopodium album; 6000 g a.i./ha, Table 9",42.5%
same,Herbicidal Activity 13 DAT (EA),"Chenopodium album; 16000 g a.i./ha, Table 3",88%
same,Herbicidal Activity 13 DAT (EA),"Chenopodium album; 16000 g a.i./ha, Table 9",84%
"O=C(Nc1ccc(F)cc1F)c1cccnc1Oc1cccc(C(F)(F)F)c1 [Diflufenican, diflufenican]",Herbicidal Activity 13 DAT (EA),Abutilon theophrasti; 60 g a.i./ha,35%
same,Herbicidal Activity 13 DAT (EA),Abutilon theophrasti; 150 g a.i./ha,65%
same,Herbicidal Activity 13 DAT (EA),"Polygonum convolvulus; 60 g a.i./ha, Table 1",40%
same,Herbicidal Activity 13 DAT (EA),"Polygonum convolvulus; 90 g a.i./ha, Table 8",45%
same,Herbicidal Activity 13 DAT (EA),"Polygonum convolvulus; 150 g a.i./ha, Table 1",60%
same,Herbicidal Activity 13 DAT (EA),"Polygonum convolvulus; 150 g a.i./ha, Table 8",60%
same,Herbicidal Activity 13 DAT (EA),"Echinocloa crus-galli; 60 g a.i./ha, Table 5",0%
same,Herbicidal Activity 13 DAT (EA),"Echinocloa crus-galli; 90 g a.i./ha, Table 11",0%
same,Herbicidal Activity 13 DAT (EA),"Echinocloa crus-galli; 150 g a.i./ha, Table 5",0%
same,Herbicidal Activity 13 DAT (EA),"Echinocloa crus-galli; 150 g a.i./ha, Table 11",0%
same,Herbicidal Activity 13 DAT (EA),"Panicum maximum; 60 g a.i./ha, Table 6",10%
same,Herbicidal Activity 13 DAT (EA),"Panicum maximum; 90 g a.i./ha, Table 12",10%
same,Herbicidal Activity 13 DAT (EA),"Panicum maximum; 150 g a.i./ha, Table 6",10%
same,Herbicidal Activity 13 DAT (EA),"Panicum maximum; 150 g a.i./ha, Table 12",10%
same,Herbicidal Activity 13 DAT (EA),"Zea mays; 60 g a.i./ha, Table 7",13%
same,Herbicidal Activity 13 DAT (EA),"Zea mays; 90 g a.i./ha, Table 13",10%
same,Herbicidal Activity 13 DAT (EA),"Zea mays; 150 g a.i./ha, Table 7",25%
same,Herbicidal Activity 13 DAT (EA),"Zea mays; 150 g a.i./ha, Table 13",25%
same,Herbicidal Activity 13 DAT (EA),"Setaria viridis; 60 g a.i./ha, Table 4",0%
same,Herbicidal Activity 13 DAT (EA),"Setaria viridis; 90 g a.i./ha, Table 10",0%
same,Herbicidal Activity 13 DAT (EA),"Setaria viridis; 150 g a.i./ha, Table 4",0%
same,Herbicidal Activity 13 DAT (EA),"Setaria viridis; 150 g a.i./ha, Table 10",0%
same,Herbicidal Activity 13 DAT (EA),"Chenopodium album; 60 g a.i./ha, Table 3",10%
same,Herbicidal Activity 13 DAT (EA),"Chenopodium album; 90 g a.i./ha, Table 9",10%
same,Herbicidal Activity 13 DAT (EA),"Chenopodium album; 150 g a.i./ha, Table 3",10%
same,Herbicidal Activity 13 DAT (EA),"Chenopodium album; 150 g a.i./ha, Table 9",10%
